From patent US8722910B2, “Diyne compositions” (Evolva AG, priority 2009, dated 2014)
In brackets after ≈: the same amount, converted by molar mass. Like-named read-outs stand apart in the source and are kept apart here.

Assays:
C. albicans SC5314 = experiment: MIC versus reference Candida strains (broth micro dilution); format: cell-based
Magnaporthe grisea = experiment: microbe, parasite or virus in culture; format: cell-based; settings: Pyricularia oryzae, read-out: % Mycelial growth Inhibition
Alternaria solani = experiment: In vitro mycelial growth inhibition, poisoned plate; format: cell-based; settings: 50 μg/ml
Protocol: (§1) Growth of fungi was carried out in potato dextrose agar media at […], and test compound was added at different concentrations and at pH 5.8 for compound X″ and at pH 7.0 for its potassium salt, compound XII″, with a water control instead of test compound. Radial mycelial growth was measured at regular intervals 4, 8, 12 and 16 days for slow growing fungi and at 3, 6 and 8 days for fast growing fungi. When the mycelia reached the end of the plate, measurements were stopped. Morphological changes in the hyphal growth and sporulation patterns were also observed. For dose response studies a range of concentrations and a range of inhibition obtained falling below and above 50% inhibition (see Table 23 below)

Botrytis cinerea [1] = experiment: as above; format: cell-based; settings: 2.5 μg/ml
Protocol: as §1

[2] = test system: Colletotrichum gloeosporioides (chili strain); experiment: as above; format: cell-based; settings: 5 μg/ml
Protocol: as §1

[3] = test system: Colletotrichum gloeosporioides (mango strain); experiment: as above; format: cell-based; settings: 5 μg/ml
Protocol: as §1

Plasmopara viticola = format: cell-based; set-up: dose or concentration left out as unconfirmed; settings: Plasmopara viticola (spore germination)
Uncinula necator = experiment: Leaf disk assay; settings: Uncinula necator (leaf disc assay)
Protocol: Leaf disk assay was carried out by the cavity well plate method for powdery mildew disease of grapes. Leaf disks of 14 mm in diameter were cut with a cork borer from the healthy leaves (second and third from the tip) of grapevine plants, and were dipped in 100 μl of each test compound at different concentrations for two minutes, as in treatment details shown below. The control leaf disks were dipped only in sterile water for two minutes. The compound treated leaf disks were placed, abaxial side up, in TC-24 well plates containing water agar medium. The disks were inoculated by placing 20 μl of inoculum (1-5×10^6 spores/ml) on the centre of the disk. After inoculation, the cavity well plates were incubated at 20° C. for 10 days. After incubation, the powdery mildew lesions on the leaf disks were rated to 0-9 scale, in which, 0 was no visible symptoms and 9 represented more than 50% leaf area with mildew growth/lesion. Percent disease index (PDI) was calculated as follows: […]
After the observation, the conidia were washed from the leaf disks in known volume of a fixative solution of ethanol-formaldehyde-acetic acid (90:5:5, v/v/v) and counted with a hemocytometer.

Puccinia arachidis = experiment: Leaf disk assay; settings: Puccinia arachidis (leaf disc assay)
[4] = test system: Colletotrichum gloeosporioides; experiment: Paper disc in the path of pathogen growth, growth and sporulation; format: cell-based; settings: compound on sterile paper disc
M. grisea = format: cell-based; settings: sterile water with different concentrations of test compound
Botrytis cinerea [5] = experiment: Changes in the hyphal tips; format: cell-based; settings: compound in the media, 2 μg/ml
Text: Apical dominance is an important criterion for growth of hyphae of fungi: at the apical tip of the mycelia branching is not seen near the growing tip. Apical dominance is maintained but branching of hyphae will start at sub-apical point, a distance away from the growth point. Under abnormal conditions of stress, apical dominance is lost, extensive branching begins, resulting in the growth of the fungal mycelia being arrested. When the test compound is incorporated in the media in which the fungi is present, hyphal tip splitting and branching is seen with loss of apical dominance and polarity. […] Hyphae from the inoculated disc start growing against gravity and are thicker than the normal hyphae seen in the control (the two upper pictures).

C. albicans ATCC-24433 = experiment: MIC versus reference Candida strains (broth micro dilution); set-up: MICs (100% inhibition): unit not given beside the values; settings: for MIC: Candida albicans
C. albicans ATCC-90028 = experiment: as above; set-up: MICs (100% inhibition): unit not given beside the values; settings: for MIC: Candida albicans
C. glabrata ATCC-90030 = experiment: as above; set-up: MICs (100% inhibition): unit not given beside the values; settings: for MIC: Nakaseomyces glabratus
C. krusei ATCC-6258 = experiment: as above; set-up: MICs (100% inhibition): unit not given beside the values; settings: for MIC: Pichia kudriavzevii
[6] = test system: C. parapsilosis ATCC-22019; experiment: as above; set-up: MICs (100% inhibition): unit not given beside the values; settings: for MIC: Lodderomyces parapsilosis
[7] = test system: C. parapsilosis ATCC-90018; experiment: as above; set-up: MICs (100% inhibition): unit not given beside the values; settings: for MIC: Lodderomyces parapsilosis
C. tropicalis ATCC-750 = experiment: as above; set-up: MICs (100% inhibition): unit not given beside the values; settings: for MIC: Candida tropicalis
Rhizoctonia solani = experiment: In vitro mycelial growth inhibition, poisoned plate; format: cell-based; settings: 50 μg/ml
[8] = test system: Botryodiplodia theobromae; experiment: as above; format: cell-based; settings: Lasiodiplodia theobromae, 50 μg/ml
Sclerotium rolfsii = experiment: as above; format: cell-based; settings: Agroathelia rolfsii, 50 μg/ml
Macrophomina phaseolina = experiment: as above; format: cell-based; settings: 100 μg/ml
Pythium aphanidermatum = experiment: as above; format: cell-based; settings: 50 μg/ml
Fusarium verticillioides = experiment: as above; format: cell-based; settings: 50 μg/ml
Fusarium oxysporum = experiment: Mycelial growth inhibition, disc diffusion assay; format: cell-based

## O=C([O-])CCCCCCCCCC#CC#Cc1ccco1.[K+] [Compound XII″, Potassium 14-(furan-2-yl)tetradeca-11,13-diynoate]
C. albicans SC5314
  MIC: 0.01 mg/L
Magnaporthe grisea
  inhibition at 5 µg/mL: 27%
Alternaria solani
  inhibition at 50 µg/mL: 42%
Botrytis cinerea [1]
  inhibition at 2.5 µg/mL: 76%
[2]
  inhibition at 5 µg/mL: 10%
[3]
  inhibition at 5 µg/mL: 28%
Plasmopara viticola
  Reduction in % disease index/germination: 93%
Uncinula necator; 10 μg/ml
  Reduction in % disease index/germination: 65%
Uncinula necator; 20 μg/ml
  Reduction in % disease index/germination: 100%
Puccinia arachidis; 10 μg/ml
  Reduction in % disease index/germination: 67%
Puccinia arachidis; 20 μg/ml
  Reduction in % disease index/germination: 75%
[4]
  growth of the mycelia: the growth of the mycelia is arrested
  sporulation around the loaded disc: no sporulation observed
M. grisea
  spores that did not germinate: more than 50%
Botrytis cinerea [5]
  toxicity to the fungus, hyphal changes: toxic to the fungus Botrytis cinerea
C. albicans ATCC-24433; ATCC24433
  MIC: 0.01 mg/L
C. albicans ATCC-90028; ATCC90028
  MIC: 0.01 mg/L
C. glabrata ATCC-90030; ATCC90030
  MIC: 0.32 mg/L
C. krusei ATCC-6258; ATCC6258
  MIC: 0.64 mg/L
[6]; ATCC22019
  MIC: > 10.2 mg/L
[7]; ATCC90018
  MIC: 5.12 mg/L
C. tropicalis ATCC-750; ATCC750
  MIC: 0.01 mg/L

## O=C(O)CCCCCCCCCC#CC#Cc1ccco1 [Compound X″]
Rhizoctonia solani
  inhibition at 50 µg/mL: 19%
[8]
  inhibition at 50 µg/mL: 15%
Sclerotium rolfsii
  inhibition at 50 µg/mL: 5%
Macrophomina phaseolina
  inhibition at 100 µg/mL: 15%
Pythium aphanidermatum
  % Mycelial Growth Inhibition: No inhibition
Fusarium verticillioides
  inhibition at 50 µg/mL: 14%
Fusarium oxysporum
  % Mycelial Growth Inhibition: No inhibition
C. albicans ATCC-24433; C. albicans ATCC 24433, CLSI M27-A3, growth inhibition of 100%, 35° C., 24 hrs
  MIC breakpoints: 0.02 mg/L (≈ 0.0698 µM)
C. albicans ATCC-24433; C. albicans ATCC 24433, NCCLS M27A, 35° C., 24 hrs
  MICs (100% inhibition): 20
C. albicans ATCC-24433; ATCC24433, read-out: minimal inhibitory concentrations
  MIC: 0.02 mg/L (≈ 0.0698 µM)
C. albicans ATCC-90028; C. albicans ATCC 90028, CLSI M27-A3, growth inhibition of 100%, 35° C., 24 hrs
  MIC breakpoints: 0.02 mg/L (≈ 0.0698 µM)
C. albicans ATCC-90028; C. albicans ATCC 90028, NCCLS M27A, 35° C., 24 hrs
  MICs (100% inhibition): 20
C. albicans ATCC-90028; ATCC90028, read-out: minimal inhibitory concentrations
  MIC: 0.02 mg/L (≈ 0.0698 µM)
C. glabrata ATCC-90030; C. glabrata ATCC 90030, CLSI M27-A3, growth inhibition of 100%, 35° C., 24 hrs
  MIC breakpoints: 2.56 mg/L (≈ 8.94 µM)
C. glabrata ATCC-90030; C. glabrata ATCC 90030, NCCLS M27A, 35° C., 24 hrs
  MICs (100% inhibition): 2560
C. glabrata ATCC-90030; ATCC90030, read-out: minimal inhibitory concentrations
  MIC: 2.56 mg/L (≈ 8.94 µM)
C. krusei ATCC-6258; C. krusei ATCC 6258, CLSI M27-A3, growth inhibition of 100%, 35° C., 24 hrs
  MIC breakpoints: 1.28 mg/L (≈ 4.47 µM)
C. krusei ATCC-6258; C. krusei ATCC 6258, NCCLS M27A, 35° C., 24 hrs
  MICs (100% inhibition): 1280
C. krusei ATCC-6258; ATCC6258, read-out: minimal inhibitory concentrations
  MIC: 1.28 mg/L (≈ 4.47 µM)
[6]; C. parapsilosis ATCC 22019, CLSI M27-A3, growth inhibition of 100%, 35° C., 24 hrs
  MIC breakpoints: >10.24 mg/L
[6]; C. parapsilosis ATCC 22019, NCCLS M27A, 35° C., 24 hrs
  MICs (100% inhibition): >10240
[6]; ATCC22019, read-out: minimal inhibitory concentrations
  MIC: > 10.2 mg/L
[7]; C. parapsilosis ATCC 90018, CLSI M27-A3, growth inhibition of 100%, 35° C., 24 hrs
  MIC breakpoints: >10.24 mg/L
[7]; C. parapsilosis ATCC 90018, NCCLS M27A, 35° C., 24 hrs
  MICs (100% inhibition): >10240
[7]; ATCC90018, read-out: minimal inhibitory concentrations
  MIC: > 10.2 mg/L
C. tropicalis ATCC-750; C. tropicalis ATCC 750, CLSI M27-A3, growth inhibition of 100%, 35° C., 24 hrs
  MIC breakpoints: 0.08 mg/L (≈ 0.279 µM)
C. tropicalis ATCC-750; C. tropicalis ATCC 750, NCCLS M27A, 35° C., 24 hrs
  MICs (100% inhibition): 80
C. tropicalis ATCC-750; ATCC750, read-out: minimal inhibitory concentrations
  MIC: 0.08 mg/L (≈ 0.279 µM)
